Data taken from patent US8399672B2, “Compound having affinity for amyloid” (Nihon Medi-Physics Co., Ltd., priority 2007, dated 2013).
Read-outs that look alike come from different tables or passages of the source.

How the values were obtained:
[1] = biological target: T1, amyloid in brain (aggregated Aβ1-42 injected into amygdaloid nucleus) (Homo sapiens, UniProt P05067); experiment: Confirmation of binding to amyloid in brain (in vitro autoradiogram of brain slice); parameters: species or system male Wistar rat; details: rat brain slice immersed in sample solution (0.1 MBq/mL)
T1 construct: Aβ1-42 (manufactured by Wako); purchased Wako
T1 sequence (P05067 672-713 limits assumed): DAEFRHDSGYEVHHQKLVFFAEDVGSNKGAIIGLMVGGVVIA
Protocol: (1) Aβ1-42 (manufactured by Wako) was dissolved in phosphate buffer (pH 7.4) and shaken at 37° C. for 72 hours, to obtain a 1 mg/mL suspension of aggregated Aβ (hereinafter referred to as amyloid suspension in the present Example).
(2) Under thiopental anesthesia, the […] of the amyloid suspension was injected into an amygdaloid nucleus on one side of a male Wistar rat (7-week old). As a control, 2.5 μL of a phosphate buffered physiological saline solution (pH 7.4) was injected into an amygdaloid nucleus on the other side of the rat. A brain was removed from the rat a day after the injection of an amyloid suspension and a phosphate buffered physiological saline solution (pH 7.4) to prepare a brain slice of 10 μm in thickness with a microtome (type: CM3050S, manufactured by LEICA).
(3) Compound 6 in diethylether solution was diluted with a 1% bovine serum albumin/phosphate buffer (hereinafter referred to as 1% PB/BSA in the present Example) to obtain a sample solution (0.1 MBq/mL in radioactivity concentration). […]
(5) After the completion of the image analysis using the Bio-imaging Analyzer, pathological staining with Thioflavin T was carried out to perform imaging by use of a fluorescence microscope (manufactured by NIKON Corporation; type: TE2000-U model; excitation wavelength: 400-440 nm; detection wavelength: 470 nm). […]

[2] = reported in WO03/106439; cited from earlier work
[3] = [125I]-labeled compounds; cited from earlier work
[4] = test system: Salmonella typhimurium TA100; experiment: Reverse mutation test (Ames test), strain TA100; type: cell-based
Protocol: (§1) In order to examine gene mutagenicity of Compound 5, reverse mutation test using Salmonella typhimurium TA98 and TA100, TA1535, TA1537 and Escherichia coli WP2uvrA (hereinafter referred to as Ames test) was conducted.
(§2) The test was conducted without addition of S9mix and with addition of S9mix. Dimethylsulfoxide (DMSO) was used as a negative control.
(§3) As a sample solution to be added to a test plate, a 50 mg/mL solution of Compound 5 in DMSO and solutions obtained by diluting this solution with DMSO to have various concentrations were prepared. For positive control without addition of S9mix, when TA98 was used as a test strain, a solution of AF-2 (compound concentration: 1 μg/mL) in DMSO was prepared and used as a sample solution; when TA100 or WP2uvrA was used as a test strain, a solution of AF-2 (compound concentration: 0.1 μg/mL) in DMSO was prepared and used as a sample solution; when TA1535 was used as a test strain, a solution of NaN3 (compound concentration: 5 μg/mL) in water for injection was prepared and used as a sample solution; and when TA1537 was used as a test strain, a solution of 9AA (compound concentration: 800 μg/mL) in DMSO was prepared and used as a sample solution. […]

[5] = test system: Salmonella typhimurium TA1535; experiment: Reverse mutation test (Ames test), strain TA1535; type: cell-based
Protocol: as §1, §2, §3

[6] = test system: Escherichia coli WP2uvrA; experiment: Reverse mutation test (Ames test), strain WP2uvrA; type: cell-based
Protocol: as §1, §2, §3

[7] = test system: Salmonella typhimurium TA98; experiment: Reverse mutation test (Ames test), strain TA98; type: cell-based
Protocol: as §1, §2, §3

[8] = test system: Salmonella typhimurium TA1537; experiment: Reverse mutation test (Ames test), strain TA1537; type: cell-based
Protocol: as §1, §2, §3

[9] = test system: Salmonella typhimurium TA98 and TA100, TA1535, TA1537 and Escherichia coli WP2uvrA; experiment: Reverse mutation test (Ames test), overall judgment over all strains; type: cell-based
Protocol: as §1, §2, §3

[10] = rats, [11C]-labeled; cited from earlier work

COc1cc(OCCO)ccc1-c1cn2cc([123I])ccc2n1
Binding to intracerebral amyloid [1]: property of binding to intracerebral amyloid

CN(C)c1ccc(-c2cn3cc(I)ccc3n2)cc1 [IMPY, 6-iodo-2-[4′-(N,N-dimethylamino)phenyl]imidazo[1,2-a]pyridine]
Result in reverse mutation test [2]: positive | Clearance from normal tissues [3]: rapid clearance from normal tissues

COc1ccc2nc(-c3ccc(OCCCF)c(I)c3)cn2c1 [Compound 5, 2-[4′-(3″-fluoropropoxy)-3′-iodophenyl]-6-methoxyimidazo[1,2-a]pyridine]
Mutagenicity, TA100 ([4]; with addition of S9mix): Negative | Mutagenicity, TA100 ([4]; without addition of S9mix): Negative | Mutagenicity, TA1535 ([5]; with addition of S9mix): Negative | Mutagenicity, TA1535 ([5]; without addition of S9mix): Negative | Mutagenicity, WP2uvrA ([6]; with addition of S9mix): Negative | Mutagenicity, WP2uvrA ([6]; without addition of S9mix): Negative | Mutagenicity, TA98 ([7]; with addition of S9mix): Negative | Mutagenicity, TA98 ([7]; without addition of S9mix): Negative | Mutagenicity, TA1537 ([8]; with addition of S9mix): Negative | Mutagenicity, TA1537 ([8]; without addition of S9mix): Negative | Judgment in the Ames test (mutagenicity) ([9]; all strains, with and without S9mix): negative | Number of reverse mutation colonies relative to the negative control ([9]; regardless of addition of S9mix and addition amount): less than two times

CNc1ccc(/C=C/c2ccc(O)cc2)cc1 [SB-13, (E)-4-methylamino-4′-hydroxystilbene]
Clearance from normal tissues [10]: shows a clearance from normal tissues
